In patent publication US8278311B2, “Substituted pyrimidine derivatives” (Abbott Laboratories, priority 2008, dated 2012):
pKi: −log10 of the molar value.

Experiments:
[1] = system: carrageenan-induced thermal hyperalgesia; assay: acute model of carrageenan-induced thermal hyperalgesia (hotbox assay); assay type: in vivo; details: assessed 30 minutes after dosing
Description: To assess the effectiveness of representative compounds of the invention against acute model inflammatory pain, animals were tested in an acute model of carrageenan-induced thermal hyperalgesia (see for example, Honore, et al. Behavioural Brain Research (2006) vol. 167 pp. 355-364; Porreca, et al. Journal of Pharmacology and Experimental Therapeutics (2006) vol. 318 pp. 195-205). Carrageenan was injected into the test paw of the animal, and after 90 minutes, the test drug was administered by intraperitoneal dosing; the effect on thermal hyperalgesia was assessed in a hotbox assay which was done 30 minutes after the intraperitoneal dosing of the test drug, and the MPE (maximal percent effect) reported by comparison to the control paw (not injected with carrageenan), according to 100 times the withdrawal latency of the carrageenan injected paw (in seconds) divided by the withdrawal latency of the control (not injected with carrageenan) paw. […] Representative compounds are active in this model, with preferred compounds of the invention active in the model at doses of about 100 micromoles/kg of body weight.

histamine H4 receptor [2] = biological target: T1, histamine H4 receptor (Homo sapiens, UniProt Q9H3N8); assay: 3H-histamine competition binding assay; details: membranes of HEK-293 cells transiently transfected with histamine H4 receptor; [3H]-histamine, 25° C., 1 hour; read-out: Binding assay Potency (Ki)
T1 construct: expressed in transfected cells
Description: The potency of compounds of the invention in displacing ^3H-histamine in competition binding assays is assessed by methods described in Esbenshade, et al., Biochemical Pharmacology (2004), vol. 68, pp. 933-945. In this assay, membranes were prepared from HEK-293 cells transiently transfected with the pClNeo expression vector harboring the histamine H4 receptor by homogenization of the cells on ice in TE buffer (50 mM Tris-HCl buffer, pH 7.4, containing 5 mM EDTA), 1 mM benzamidine, 2 μg/mL aprotinin, 1 μg/mL leupeptin, and 1 μg/mL pepstatin. The homogenate was centrifuged at 40,000 g for 20 minutes at 4° C. This step was repeated, and the resulting pellet was resuspended in TE buffer. Aliquots were frozen at −70° C. until needed. On the day of assay, membranes were thawed and diluted with TE buffer. Competition radioligand binding assays were performed with increasing concentrations of test compound in the presence of [^3H]-histamine incubated at 25° C. for 1 hour in a total volume of 0.5 mL of 50 mM Tris, 5 mM EDTA, pH 7.4. All binding reactions were terminated by filtration under vacuum onto polyethylenimine (0.3%) presoaked Unifilters (PerkinElmer Life Sciences) or Whatman GF/B filters (Whatman, Clifton, N.J.) followed by three brief washes with 4 mL of ice-cold TE buffer. Bound radiolabel was determined by liquid scintillation counting. For all of the radioligand competition binding assays, IC50 values and Hill slopes were determined by Hill transformation of the data and Ki values were determined by the Cheng-Prusoff equation. The following table of representative histamine H4 receptor ligands is provided, along with potency values: […]

histamine H4 receptor [3] = biological target: T1, histamine H4 receptor; assay: in vitro assay of histamine H4 activity using FLIPR-Ca+2 flux; assay type: cell-based; details: HEK-293 cells stably expressing histamine H4 receptor and Gαqi5, Fluo-4; Kb for antagonists and inverse agonists, EC50 for partial agonists
Excerpt: There are many methods available to show the effectiveness of compounds as histamine H4 receptor ligands. Histamine H4 receptors from mammalian species have been cloned. Methods to clone, express, and assess the potency and functional activity of such cloned genes are well known to those skilled in the art of molecular biology. Examples of methods of cloning and expressing histamine H4 receptors, and of assessing the potency and functional activity are described in Nguyen, et al. Molecular Pharmacology (2001) vol. 59 pp. 427-433; Zhu, et al. Molecular Pharmacology (2001) vol. 59 pp. 434-441; Coge, et al., Biochemical and Biophysical Research Communications (2001) vol. 284, pp. 301-309; Liu, et al. Molecular Pharmacology (2001) vol. 59 pp. 420-426; Liu, et al. Journal of Pharmacology and Experimental Therapeutics (2001) v. 299, pp. 121-130; and Thurmond, et al. Journal of Pharmacology and Experimental Therapeutics (2004) v. 309, pp. 404-413. In the present case, to determine the potency and effectiveness of representative compounds of this invention as histamine-H4 receptor ligands (H4 receptor ligands), the following tests were conducted according to previously described methods (see Esbenshade, et al., Biochemical Pharmacology (2004), vol. 68, pp. 933-945, and in Krueger, et al., Journal of Pharmacology and Experimental Therapeutics (2005) v. 314, pp. 271-281): histamine H4 receptors were cloned and stably expressed in HEK-293 (human embryonic kidney) cells coexpressing a Gαqi5. Before testing, cells are loaded with a Ca+^2 sensitive fluorescent dye, in this case Fluo-4 (Invitrogen, Carlsbad, Calif.). In the case of partial agonist or agonist ligands, addition of compound to the cells leads to the increase in intracellular Ca^+2 which is detected by FLIPR (Fluorescence Imaging Plate Reader; Molecular Devices, Sunnyvale, Calif.) technology. In a similar manner, compounds that are antagonists or inverse agonists, block the increase in fluorescence induced by the full histamine H4 agonist histamine, and partial agonists reduce the amount of fluorescence induced by the full histamine H4 agonist histamine. The fluorescence intensities measured before addition of the test compound are subtracted from the fluorescence intensities at later time points. Peak response values determined at each concentration of ligand are expressed as a percentage of the response obtained with the full agonist histamine. Concentration versus response data are analyzed to obtain compound potency as Kb values for antagonists and inverse agonists and as EC50 values for partial agonists.

[4] = 100 micromole/kg injected intraperitoneally

Row | Structure (SMILES) | pKi (histamine H4 receptor [2]) | Potency (histamine H4 receptor [3]) [nM] | MPE (maximal percent effect) [1, 4] [%] | MPE (maximal percent effect) ([1]; 30 micromole/kg injected intraperitoneally) [%]
1 | Nc1nc2c(c(N3CCNCC3)n1)CCC1=C2[C@@H]2CCCC[C@@H]2O1 (single isomer, unassigned) [Example 3, (−)-(7aS*,11aS*)-4-piperazin-1-yl-5,6,7a,8,9,10,11,11a-octahydro[1]benzofuro[2,3-h]quinazolin-2-amine] | 7.78 | 5.9 | 47 | 
2 | Nc1nc2c(c(N3CCNCC3)n1)CCC1=C2C2CCCCC2O1 (centres unmarked) [Example 1, 4-piperazin-1-yl-5,6,7a,8,9,10,11,11a-octahydro[1]benzofuro[2,3-h]quinazolin-2-amine] | 8.24 | 4.7 | 68 | 48
3 | CN[C@@H]1CCN(c2nc(N)nc3c2CCC2=C3C3CCCCC3O2)C1 (stereo partly drawn) [Example 2, 4-[(3R)-3-(methylamino)pyrrolidin-1-yl]-5,6,7a,8,9,10,11,11a-octahydro[1]benzofuro[2,3-h]quinazolin-2-amine] | 8.48 | 5.9 |  | 

These reach a higher pKi (histamine H4 receptor [2]). Values come first.

Row | pKi (histamine H4 receptor [2]) | Potency (histamine H4 receptor [3]) [nM] | Structure (SMILES) | MPE (maximal percent effect) [1, 4] [%] | MPE (maximal percent effect) ([1]; 30 micromole/kg injected intraperitoneally) [%]
4 | 8.52 | 4.5 | Nc1nc2c(c(N3CCNCC3)n1)CCC1=C2[C@H]2CCCC[C@H]2O1 (single isomer, unassigned) [Example 4, (+)-(7aR*,11aR*)-4-piperazin-1-yl-5,6,7a,8,9,10,11,11a-octahydro[1]benzofuro[2,3-h]quinazolin-2-amine] | 63 | 
5 | 8.70 | 6.9 | Nc1nc2c(c(N3CCNCC3)n1)CC[C@@H]1CCCC[C@@H]21 (relative stereo) [Example 12, trans-4-piperazin-1-yl-5,6,6a,7,8,9,10,10a-octahydrobenzo[h]quinazolin-2-amine] |  | 
